Test results published in patent US9227971B2, “Pyrazolo[1,5-a]pyrimidine compounds as mTOR inhibitors” (Merck Sharp & Dohme Corp., priority 2010, dated 2016).
Like-named read-outs stand apart in the source and are kept apart here.

Assays:
[1] = test system: phosphorylated AKT Ser473 (pAKT S473), mTORC2 activity, PC3 cells; test: mTOR target engagement assay, immunofluorescent cell-based, pAKT S473 readout (mTORC2 activity); details: Homo sapiens
Summary of the method: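 After blocking, cells were stained overnight at 4 °C with anti-pAKT S473 antibody, then a fluorescent secondary; inhibition was read as reduced fluorescence intensity.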

[2] = test system: phosphorylated 4E-BP1 Thr37/46 (p4E-BP1 Thr37/46), mTORC1 activity, PC3 cells; test: mTOR target engagement assay, immunofluorescent cell-based, p4E-BP1 Thr37/46 readout (mTORC1 activity); details: Homo sapiens, read-out: p4E-BP1 Thr37/46 IC50
Summary of the method: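 PTEN-mutant PC3 prostate cells were treated with serially diluted compound in 5% FBS F12 medium (0.25% DMSO) for ninety minutes at 37° C, glyoxal-fixed, then immunostained overnight at 4° C for p4E-BP1 Thr37/46 with an Alexa Fluor 488 secondary. IC50 came from four-parameter fits of fluorescence, DMSO-only wells defining 100%.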

[3] = PC-3, PC3 cells, compound treatment ninety minutes at 37° C.

Compound | IC50 ([1]; PC-3, Table 3-1, PC3 cells) [µM] | IC50 ([2]; PC-3, Table 3-1, PC3 cells) [µM] | IC50 [1, 3] [µM] | IC50 [2, 3] [µM] | further results
CS(=O)(=O)c1c([C@@H]2C[C@H]3CC[C@@H](C2)N3C(=O)c2cn[nH]c2N)nc2c(-c3ccc(-c4ccccc4)nc3)cnn2c1N [Compound 3.90, (5-amino-1H-pyrazol-4-yl)((1R,3s,5S)-3-(7-amino-6-(methylsulfonyl)-3-(6-phenylpyridin-3-yl)pyrazolo[1,5-a]pyrimidin-5-yl)-8-azabicyclo[3.2.1]octan-8-yl)methanone] | 0.001 to 0.1 | 0.001 to 0.1 | – | – | –
Nc1cc([C@@H]2C[C@H]3CC[C@@H](C2)N3C(=O)c2nnc[nH]2)nc2c(-c3ccc(-c4ccccc4F)nc3)cnn12 [Compound 2.16, ((1R,3s,5S)-3-(7-amino-3-(6-(2-fluorophenyl)pyridin-3-yl)pyrazolo[1,5-a]pyrimidin-5-yl)-8-azabicyclo[3.2.1]octan-8-yl)(4H-1,2,4-triazol-3-yl)methanone] | – | – | 0.1 to 1 | 0.1 to 1 | –
Cc1nc(-c2ccc(-c3cnn4c(N)c(S(C)(=O)=O)c([C@@H]5C[C@H]6CC[C@@H](C5)N6C(=O)c5nnc[nH]5)nc34)cn2)sc1C [Compound 3.196, ((1R,3s,5S)-3-(7-amino-3-(6-(4,5-dimethylthiazol-2-yl)pyridin-3-yl)-6-(methylsulfonyl)pyrazolo[1,5-a]pyrimidin-5-yl)-8-azabicyclo[3.2.1]octan-8-yl)(4H-1,2,4-triazol-3-yl)methanone] | 0.1 to 1 | 0.1 to 1 | – | – | –
Nc1c(C2CC2)c([C@@H]2C[C@H]3CC[C@@H](C2)N3C(=O)c2nnc[nH]2)nc2c(-c3ccc(C4(O)CCC4)nc3)cnn12 [Compound 7.43, ((1R,3s,5S)-3-(7-amino-6-cyclopropyl-3-(6-(1-hydroxycyclobutyl)pyridin-3-yl)pyrazolo[1,5-a]pyrimidin-5-yl)-8-azabicyclo[3.2.1]octan-8-yl)(4H-1,2,4-triazol-3-yl)methanone] | – | – | – | – | IC50 ([1]; PC-3, Table 7-8, PC3 cells): 0.1 to 1 µM; IC50 ([2]; PC-3, Table 7-8, PC3 cells): 0.1 to 1 µM
Cc1csc(-c2ccc(-c3cnn4c(N)c(S(C)(=O)=O)c([C@@H]5C[C@H]6CC[C@@H](C5)N6C(=O)c5cn[nH]n5)nc34)cn2)n1 [Compound 3.189, ((1R,3s,5S)-3-(7-amino-6-(methylsulfonyl)-3-(6-(4-methylthiazol-2-yl)pyridin-3-yl)pyrazolo[1,5-a]pyrimidin-5-yl)-8-azabicyclo[3.2.1]octan-8-yl)(2H-1,2,3-triazol-4-yl)methanone] | 1 to 10 | 1 to 10 | – | – | –
CS(=O)(=O)c1c([C@@H]2C[C@H]3CC[C@@H](C2)N3C(=O)CO)nc2c(-c3ccc(C(N)=O)c(F)c3)cnn2c1N [Compound 3.156, 4-(7-amino-5-((1R,3a,5S)-8-(2-hydroxyacetyl)-8-azabicyclo[3.2.1]octan-3-yl)-6-(methylsulfonyl)pyrazolo[1,5-a]pyrimidin-3-yl)-2-fluorobenzamide] | > 10 | 1 to 10 | – | – | –
CS(=O)(=O)c1c([C@@H]2C[C@H]3CC[C@@H](C2)N3C(=O)c2nnc[nH]2)nc2c(-c3ccc(-c4c(F)cccc4F)nc3)cnn2c1N [Compound 3.107, ((1R,3s,5S)-3-(7-amino-3-(6-(2,6-difluorophenyl)pyridin-3-yl)-6-(methylsulfonyl)pyrazolo[1,5-a]pyrimidin-5-yl)-8-azabicyclo[3.2.1]octan-8-yl)(4H-1,2,4-triazol-3-yl)methanone] | 0.001 to 0.1 | 0.001 to 0.1 | – | – | –
CC(=O)c1c([C@@H]2C[C@H]3CC[C@@H](C2)N3C(=O)c2nnc[nH]2)nc2c(-c3cnn(-c4ccccn4)c3)cnn2c1N [Compound 1.1.161, 1-(5-((1R,3s,5S)-8-(4H-1,2,4-triazole-3-carbonyl)-8-azabicyclo[3.2.1]octan-3-yl)-7-amino-3-(1-(pyridin-2-yl)-1H-pyrazol-4-yl)pyrazolo[1,5-a]pyrimidin-6-yl)ethanone] | – | – | 0.1 to 1 | 0.1 to 1 | –
CCNC(=O)N1[C@@H]2CC[C@H]1C[C@H](c1nc3c(-c4ccc(-c5ccccc5)nc4)cnn3c(N)c1C1CC1)C2 [Compound 4.5, (1R,3s,5S)-3-(7-amino-6-cyclopropyl-3-(6-phenylpyridin-3-yl)pyrazolo[1,5-a]pyrimidin-5-yl)-N-ethyl-8-azabicyclo[3.2.1]octane-8-carboxamide] | – | – | 0.1 to 1 | 0.1 to 1 | –
CC(=O)c1c([C@@H]2C[C@H]3CC[C@@H](C2)N3S(=O)(=O)c2nnc[nH]2)nc2c(-c3ccc(-c4ccccc4)nc3)cnn2c1N [Compound 1.1.42, 1-(5-((1R,3s,5S)-8-(4H-1,2,4-triazol-3-ylsulfonyl)-8-azabicyclo[3.2.1]octan-3-yl)-7-amino-3-(6-phenylpyridin-3-yl)pyrazolo[1,5-a]pyrimidin-6-yl)ethanone] | – | – | 0.1 to 1 | 0.1 to 1 | –
Cc1nnc(C(=O)N2[C@@H]3CC[C@H]2C[C@H](c2nc4c(-c5cn[nH]c5)cnn4c(N)c2S(C)(=O)=O)C3)[nH]1 [Compound 3.115, ((1R,3s,5S)-3-(7-amino-6-(methylsulfonyl)-3-(1H-pyrazol-4-yl)pyrazolo[1,5-a]pyrimidin-5-yl)-8-azabicyclo[3.2.1]octan-8-yl)(5-methyl-4H-1,2,4-triazol-3-yl)methanone] | > 10 | > 10 | – | – | –
CC(=O)c1c([C@@H]2C[C@H]3CC[C@@H](C2)N3C(=O)C2CCCO2)nc2c(-c3ccc(-c4ncc[nH]4)nc3)cnn2c1N (stereo partly drawn) [Compound 6.19, 1-(3-(6-(1H-imidazol-2-yl)pyridin-3-yl)-7-amino-5-((1R,3s,5S)-8-(tetrahydrofuran-2-carbonyl)-8-azabicyclo[3.2.1]octan-3-yl)pyrazolo[1,5-a]pyrimidin-6-yl)ethanone] | – | – | – | – | IC50 ([1]; PC-3, Table 6-1, PC3 cells): 0.001 to 0.1 µM; IC50 ([2]; PC-3, Table 6-1, PC3 cells): 0.1 to 1 µM
COCc1cc(-c2ccc(-c3cnn4c(N)c(C(C)=O)c([C@@H]5C[C@H]6CC[C@@H](C5)N6C(=O)c5nnc[nH]5)nc34)cn2)ccc1OC [Compound 1.1.45, 1-(5-((1R,3s,5S)-8-(4H-1,2,4-triazole-3-carbonyl)-8-azabicyclo[3.2.1]octan-3-yl)-7-amino-3-(6-(4-methoxy-3-(methoxymethyl)phenyl)pyridin-3-yl)pyrazolo[1,5-a]pyrimidin-6-yl)ethanone] | – | – | 0.001 to 0.1 | 0.001 to 0.1 | –
CS(=O)(=O)c1c([C@H]2CC3CC[C@H](C2)N3C(=O)c2nnc[nH]2)nc2c(-c3cnc4c(c3)CCC4O)cnn2c1N (stereo partly drawn) [Compound 7.62, ((1R,3s,5S)-3-(7-amino-3-(7-hydroxy-6,7-dihydro-5H-cyclopenta[b]pyridin-3-yl)-6-(methylsulfonyl)pyrazolo [1,5-a]pyrimidin-5-yl)-8-azabicyclo[3.2.1]octan-8-yl)(4H-1,2,4-triazol-3-yl)methanone] | – | – | – | – | IC50 ([1]; PC-3, PC3 cells): 1 to 10 µM; IC50 ([2]; PC-3, PC3 cells): 1 to 10 µM
CC(=O)c1c([C@@H]2C[C@H]3CC[C@@H](C2)N3C(=O)c2nnc[nH]2)nc2c(-c3cnn(-c4ccccc4)c3)cnn2c1N [Compound 1.1.143, 1-(5-((1R,3s,5S)-8-(4H-1,2,4-triazole-3-carbonyl)-8-azabicyclo[3.2.1]octan-3-yl)-7-amino-3-(1-phenyl-1H-pyrazol-4-yl)pyrazolo[1,5-a]pyrimidin-6-yl)ethanone] | – | – | 0.001 to 0.1 | 0.001 to 0.1 | –
CS(=O)(=O)c1c([C@@H]2C[C@H]3CC[C@@H](C2)N3C(=O)c2cc(O)ccn2)nc2c(-c3ccc(-c4ccccc4)nc3)cnn2c1N [Compound 3.14, ((1R,3s,5S)-3-(7-amino-6-(methylsulfonyl)-3-(6-phenylpyridin-3-yl)pyrazolo[1,5-a]pyrimidin-5-yl)-8-azabicyclo[3.2.1]octan-8-yl)(4-hydroxypyridin-2-yl)methanone] | 0.1 to 1 | 1 to 10 | – | – | –
CC(=O)c1c([C@@H]2C[C@H]3CC[C@@H](C2)N3C(=O)c2nnc(C)[nH]2)nc2c(-c3ccc(C4(O)CCC4)nc3)cnn2c1N [Compound 7.17, 1-(7-amino-3-(6-(1-hydroxycyclobutyl)pyridin-3-yl)-5-((1R,3s,5S)-8-(3-methyl-1H-1,2,4-triazole-5-carbonyl)-8-azabicyclo[3.2.1]octan-3-yl)pyrazolo[1,5-a]pyrimidin-6-yl)ethanone] | – | – | 0.1 to 1 | 0.1 to 1 | –
CCC(O)c1ccc(-c2cnn3c(N)c(S(C)(=O)=O)c([C@@H]4C[C@H]5CC[C@@H](C4)N5C(=O)c4nnc[nH]4)nc23)cn1 (stereo partly drawn) [Compound 7.26, ((1R,3s,5S)-3-(7-amino-3-(6-(1-hydroxypropyl)pyridin-3-yl)-6-(methylsulfonyl)pyrazolo[1,5-a]pyrimidin-5-yl)-8-azabicyclo[3.2.1]octan-8-yl)(4H-1,2,4-triazol-3-yl)methanone] | – | – | – | – | IC50 ([1]; PC-3, Table 7-2, PC3 cells): 0.1 to 1 µM; IC50 ([2]; PC-3, Table 7-2, PC3 cells): 0.1 to 1 µM
Cc1n[nH]c(CC(=O)N2[C@@H]3CC[C@H]2C[C@H](c2nc4c(-c5ccc(-c6ccccc6)nc5)cnn4c(N)c2S(C)(=O)=O)C3)n1 [Compound 3.82, 1-((1R,3s,5S)-3-(7-amino-6-(methylsulfonyl)-3-(6-phenylpyridin-3-yl)pyrazolo[1,5-a]pyrimidin-5-yl)-8-azabicyclo[3.2.1]octan-8-yl)-2-(3-methyl-1H-1,2,4-triazol-5-yl)ethanone] | 0.1 to 1 | 0.1 to 1 | – | – | –
